Data published in patent publication US5239084A, “Substituted aminoalkyl biphenyl compounds” (Hoffmann-La Roche Inc., priority 1990, dated 1993).
≈ marks a conversion by molar mass, not a printed value. Where “and” joins values, the source holds several entries; their conditions need not be identical. Identical values can stand only once. Counter-ions that a name gives are not always drawn. Like-named read-outs stand apart in the source and are kept apart here.

Experiments:
[1] = target: T1, 2,3-epoxysqualene-lanosterol cyclase (Candida albicans, UniProt Q04782); assay: inhibition of 2,3-epoxysqualene-lanosterol cyclase from Candida albicans (cell-free extract, 14C-squalene epoxide); type: biochemical
T1 construct: there was obtained a cell-free extract (CFE) as the supernatant; endogenous in cells; host or cells: Candida albicans culture, protoplasts ruptured, cell-free extract (10000 g supernatant)

C. albicans H12 = assay: agar dilution method, C. albicans H12; type: cell-based, Candida albicans
C. albicans H29 = assay: agar dilution method, C. albicans H29; type: cell-based, Candida albicans
C. albicans 3153 = assay: agar dilution method, C. albicans 3153; type: cell-based, Candida albicans
C. albicans B5 = assay: agar dilution method, C. albicans B5; type: cell-based, Candida albicans
C. albicans B4 = assay: agar dilution method, C. albicans B4; type: cell-based, Candida albicans; details: for MIC: Candida albicans, B4, 48 h
C. albicans 3152 = assay: agar dilution method, C. albicans 3152; type: cell-based, Candida albicans; details: Candida albicans, 48 h, alone, 37° C., 2 days
[2] = cell-free extract, pH 6.9, 30° C., 1 hour, read-out: IC50 (converted)
[3] = in combination with compound 14
[4] = in combination with compound 20

T1 sequence (Q04782 whole entry): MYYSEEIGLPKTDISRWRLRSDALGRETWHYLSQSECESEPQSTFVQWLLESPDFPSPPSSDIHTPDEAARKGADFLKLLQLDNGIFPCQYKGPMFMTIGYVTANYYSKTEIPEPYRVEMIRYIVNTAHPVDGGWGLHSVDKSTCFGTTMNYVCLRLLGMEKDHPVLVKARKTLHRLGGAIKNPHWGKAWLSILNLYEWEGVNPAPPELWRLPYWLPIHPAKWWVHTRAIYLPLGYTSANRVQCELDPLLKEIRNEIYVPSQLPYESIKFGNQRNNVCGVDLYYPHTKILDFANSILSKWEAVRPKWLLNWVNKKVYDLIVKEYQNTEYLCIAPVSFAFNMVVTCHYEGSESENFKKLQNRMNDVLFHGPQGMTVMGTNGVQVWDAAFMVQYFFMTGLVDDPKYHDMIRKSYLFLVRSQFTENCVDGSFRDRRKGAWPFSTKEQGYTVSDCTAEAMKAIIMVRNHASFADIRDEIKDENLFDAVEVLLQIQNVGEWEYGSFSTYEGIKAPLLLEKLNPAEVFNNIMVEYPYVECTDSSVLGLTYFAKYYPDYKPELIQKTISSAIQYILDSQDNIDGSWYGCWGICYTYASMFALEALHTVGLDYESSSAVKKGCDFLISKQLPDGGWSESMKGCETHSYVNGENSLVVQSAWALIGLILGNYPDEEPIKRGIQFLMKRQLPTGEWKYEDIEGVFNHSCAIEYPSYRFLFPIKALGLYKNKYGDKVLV

SMILES: C=CCN(C)Cc1ccc(-c2ccc(C(=O)c3ccc([N+](=O)[O-])cc3)cc2)cc1 [Compound 17]
- IC50 [1, 2]: 41.4 nM

SMILES: Cc1ccccc1C(=O)c1ccc(-c2ccc(CN(C)C)cc2)cc1 [Compound 32]
- IC50 ([1]; cell-free extract, pH 6.9, 30° C., 1 hour): 0/03

SMILES: CC(c1ccc(-c2ccc(C(=O)c3ccccc3)cc2)cc1)N(C)C (racemic) [Compound 2, rac-4'-[1-(dimethylamino)ethyl]-4-biphenylyl phenyl ketone hydrochloride]
- IC50 [1, 2]: 219 nM

SMILES: CN(C/C=C/C#CC(C)(C)C)Cc1cccc2ccccc12 [terbinafine, reference compound]
- MIC of sterol biosynthesis inhibitor in combination (C. albicans H12; [3]): 1.5 µg/mL
- MIC of sterol biosynthesis inhibitor in combination (C. albicans H12; [4]): 0.75 µg/mL
- MIC of sterol biosynthesis inhibitor in combination (C. albicans H29; [3]): 3.0 µg/mL
- MIC of sterol biosynthesis inhibitor in combination (C. albicans H29; [4]): 0.75 µg/mL
- MIC of sterol biosynthesis inhibitor in combination (C. albicans 3153; [3]): 3.0 µg/mL and 1.5 µg/mL
- MIC of sterol biosynthesis inhibitor in combination (C. albicans 3153; [4]): 1.50 µg/mL
- MIC of sterol biosynthesis inhibitor in combination (C. albicans B5; [3]): 3.0 µg/mL
- MIC of sterol biosynthesis inhibitor in combination (C. albicans B5; [4]): 0.7 µg/mL
- MIC (C. albicans B4; alone, 37° C., 2 days): 100 µg/mL (≈ 343 µM)
- MIC of sterol biosynthesis inhibitor in combination (C. albicans B4; [3]): 3.0 µg/mL
- MIC of sterol biosynthesis inhibitor in combination (C. albicans B4; [4]): 1.5 µg/mL

SMILES: C=CCN(C)Cc1ccc(-c2ccc(C(=O)c3ccc(Cl)cc3Cl)cc2)cc1 [Compound 16, 2,4-dichlorophenyl 4'-(allylmethylamino)-methyl]-4-biphenylyl ketone hydrochloride]
- IC50 [1, 2]: 39 nM

SMILES: CC(=O)N1CCN(c2ccc(OCC3COC(Cn4ccnc4)(c4ccc(Cl)cc4Cl)O3)cc2)CC1 (stereo not drawn) [ketoconazole, reference compound]
- MIC (C. albicans H12; Candida albicans, H12, 48 h, alone, 37° C., 2 days): 5 µg/mL (≈ 9.41 µM)
- MIC alone (C. albicans H12; alone, 37° C., 2 days): 10 µg/mL (≈ 18.8 µM)
- MIC of sterol biosynthesis inhibitor in combination (C. albicans H12; [4]): 0.15 µg/mL and 0.075 µg/mL
- MIC (C. albicans H29; Candida albicans, H29, 48 h, alone, 37° C., 2 days): 0.15 µg/mL (≈ 0.282 µM)
- MIC of sterol biosynthesis inhibitor in combination (C. albicans H29; [3]): 0.019 µg/mL and 0.038 µg/mL
- MIC of sterol biosynthesis inhibitor in combination (C. albicans H29; [4]): 0.019 µg/mL
- MIC (C. albicans 3153; Candida albicans, 3153, 48 h, alone, 37° C., 2 days): 2.5 µg/mL (≈ 4.7 µM)
- MIC of sterol biosynthesis inhibitor in combination (C. albicans 3153; [4]): 0.075 µg/mL
- MIC (C. albicans B5; Candida albicans, B5, 48 h, alone, 37° C., 2 days): 0.15 µg/mL (≈ 0.282 µM)
- MIC alone (C. albicans B5; alone, 37° C., 2 days): 0.3 µg/mL (≈ 0.565 µM)
- MIC of sterol biosynthesis inhibitor in combination (C. albicans B5; [3]): 0.019 µg/mL and 0.038 µg/mL
- MIC of sterol biosynthesis inhibitor in combination (C. albicans B5; [4]): 0.019 µg/mL
- MIC (C. albicans B4; alone, 37° C., 2 days): 2.5 µg/mL (≈ 4.7 µM)
- MIC alone (C. albicans B4; alone, 37° C., 2 days): 5 µg/mL (≈ 9.41 µM)
- MIC of sterol biosynthesis inhibitor in combination (C. albicans B4; [3]): 0.075 µg/mL and 0.15 µg/mL
- MIC of sterol biosynthesis inhibitor in combination (C. albicans B4; [4]): 0.075 µg/mL
- MIC (C. albicans 3152): 2.5 µg/mL (≈ 4.7 µM)

SMILES: CC(C)=CCCC(=O)c1ccc(-c2ccc(CN(C)C)cc2)cc1 [Compound 36, 4'-[(dimethylamino)methyl]-4-biphenylyl 4-methyl-3-pentenyl ketone hydrochloride]
- IC50 [1, 2]: 8.38 nM

SMILES: C=CCN(C)Cc1ccc(-c2ccc(C(=O)c3ccc([N+](=O)[O-])cc3Cl)cc2)cc1 [Compound 24, 4'-[[(Allylmethylamino)methyl]-4-biphenylyl 2-chloro-4-nitrophenyl ketone hydrochloride]
- IC50 [1, 2]: 26.1 nM

SMILES: CN(C)Cc1ccc(-c2ccc(C(=O)c3ccc(Br)cc3Br)cc2)cc1 [Compound 27]
- IC50 [1, 2]: 50.7 nM

SMILES: CN(C)Cc1ccc(-c2ccc(C(=O)c3ccc(I)cc3)cc2)cc1 [Compound 10, 4'-[(Dimethylamino)methyl]-4-biphenylyl p-iodophenyl ketone hydrochloride]
- IC50 [1, 2]: 98.4 nM

SMILES: CN(C)Cc1ccc(-c2ccc(C(=O)c3ccc(Br)cc3)cc2)cc1 [Compound 6, p-Bromophenyl 4'-[(dimethylamino)methyl]-4-biphenylyl ketone hydrochloride]
- IC50 [1, 2]: 102 nM

SMILES: C=CCN(C)Cc1ccc(-c2ccc(C(=O)c3ccc(Br)cc3Br)cc2)cc1 [Compound 28]
- IC50 [1, 2]: 40.1 nM

SMILES: CN(C)Cc1ccc(-c2ccc(C(=O)c3ccc(C#N)cc3)cc2)cc1 [Compound 11, p-[[(4'-[(Dimethylamino)methyl]-4-biphenylyl]carbonyl]-benzonitrile hydrochloride]
- IC50 [1, 2]: 170 nM

SMILES: CN(C)Cc1ccc(-c2ccc(C(=O)CCCCCCCCO)cc2)cc1 [Compound 37, 4'-[(dimethylamino)methyl]-4-biphenylyl 8-hydroxyoctyl ketone hydrochloride]
- IC50 [1, 2]: 42.1 nM

SMILES: C=CCN(C)Cc1ccc(-c2ccc(C(=O)CCC=C(C)C)cc2)cc1 [Compound 39, 4'-[(allylmethylamino)methyl]-4-biphenylyl 4-methyl-3-pentenyl ketone]
- IC50 [1]: 25.9 nM

SMILES: C=CCN(C)Cc1ccc(-c2ccc(C(=O)c3ccc4ccccc4c3)cc2)cc1 [Compound 23, 4'-[(Allylmethylamino)methyl]-4-biphenylyl 2-naphthyl ketone hydrochloride]
- IC50 [1]: 409 nM

SMILES: CN(C)Cc1ccc(-c2ccc(C(=O)c3ccc4ccccc4c3)cc2)cc1 [Compound 13, 4'-[(Dimethylamino)methyl]-4-biphenylyl 2-naphthyl ketone hydrochloride]
- IC50 [1, 2]: 522 nM

SMILES: CCCCCC(=O)c1ccc(-c2ccc(CN(C)C)cc2)cc1 [Compound 35, 4'-[(dimethylamino)-methyl]-4-biphenylyl pentyl ketone hydrochloride]
- IC50 [1, 2]: 89.6 nM

SMILES: CN(C)Cc1ccc(-c2ccc(C(=O)c3cccc4ccccc34)cc2)cc1 [Compound 12, 4'-[(Dimethylamino)methyl]-4-biphenylyl 1-naphthyl ketone hydrochloride]
- IC50 [1, 2]: 771 nM

SMILES: C=CCN(C)Cc1ccc(-c2ccc(C(=O)CCCCC)cc2)cc1 [Compound 38, 4'-[(allylmethylamino)methyl]-4-biphenylyl pentyl ketone hydrochloride]
- IC50 [1]: 62.6 nM

SMILES: C=CCN(C)Cc1ccc(-c2ccc(C(=O)c3ccc(F)cc3)cc2)cc1 [Compound 15, 4'-[(Allylmethylamino)methyl]-4-biphenylyl p-fluorophenyl ketone hydrochloride]
- IC50 [1]: 100 nM

SMILES: CN(C)C(C)(C)c1ccc(-c2ccc(C(=O)c3ccccc3)cc2)cc1 [Compound 9, 4'-[1-(dimethylamino)-1-methylethyl]-4-biphenylyl phenyl ketone hydrochloride]
- IC50 [1, 2]: 2500 nM

SMILES: C=CCN(C)Cc1ccc(-c2ccc(C(=O)CCCCCCCCO)cc2)cc1 [Compound 40, 4'-[(allylmethylamino)methyl]-4-biphenylyl 8-hydroxyoctyl ketone fumarate]
- IC50 [1]: 17.8 nM

SMILES: C=CCN(C)Cc1ccc(-c2ccc(C(=O)c3ccccc3C)cc2)cc1 [Compound 33]
- IC50 [1, 2]: 33.8 nM

SMILES: C=CCN(C)Cc1ccc(-c2ccc(C(=O)c3ccc(C#N)cc3)cc2)cc1 [Compound 19, p-[[4'-[(Allylmethylamino)methyl]-4-biphenylyl]carbonyl]-benzonitrile hydrochloride]
- IC50 [1]: 109 nM

SMILES: C=CCN(C)C(C)c1ccc(-c2ccc(C(=O)c3ccccc3)cc2)cc1 (racemic) [Compound 18, rac-4'-[1-(Allylmethylamino)ethyl]-4-biphenylyl phenyl ketone hydrochloride]
- IC50 [1]: 90 nM

SMILES: CN(C)Cc1ccc(-c2ccc(C(=O)c3ccc(Cl)cc3Cl)cc2Cl)cc1 [Compound 7]
- IC50 [1, 2]: 239 nM

SMILES: COc1ccccc1C(=O)c1ccc(-c2ccc(CN(C)C)cc2)cc1 [Compound 29]
- IC50 [1, 2]: 550 nM

SMILES: C=CCN(C)Cc1ccc(-c2ccc(C(=O)c3cccc4ccccc34)cc2)cc1 [Compound 22, 4'-[(Allylmethylamino)methyl]-4-biphenylyl 1-naphthyl ketone hydrochloride]
- IC50 [1]: 434 nM

SMILES: CN(C)Cc1ccc(-c2ccc(C(=O)c3ccc([N+](=O)[O-])cc3Cl)cc2)cc1 [Compound 8, 2-Chloro-4-nitrophenyl 4'-[(dimethylamino)methyl]-4-biphenyl ketone hydrochloride]
- IC50 [1, 2]: 111 nM

SMILES: CN(C)Cc1ccc(-c2ccc(C(=O)c3ccccc3)cc2)cc1 [Compound 1, 4'-[(dimethylamino)methyl]-4-biphenylyl phenyl ketone hydrochloride]
- IC50 [1, 2]: 284 nM

SMILES: CN(C)Cc1ccc(-c2ccc(C(=O)c3ccc(F)cc3)cc2)cc1 [Compound 3, 4'-[(Dimethylamino)methyl]-4-biphenyl p-fluorophenyl ketone hydrochloride]
- IC50 [1, 2]: 300 nM

SMILES: CN(C)Cc1ccc(-c2ccc(C(=O)c3ccc([N+](=O)[O-])cc3)cc2)cc1 [Compound 5, 4'-[(Dimethylamino)methyl]-4-biphenylyl p-nitrophenyl ketone hydrochloride]
- IC50 [1, 2]: 290 nM

SMILES: CNCc1ccc(-c2ccc(C(=O)c3ccccc3)cc2)cc1 [Compound 26, 4'-[(Methylamino)methyl]-4-biphenylyl phenyl ketone hydrochloride]
- IC50 [1, 2]: 592 nM

SMILES: CN(C)Cc1ccc(-c2ccc(C(=O)c3ccc(Cl)cc3Cl)cc2)cc1 [Compound 4, 2,4-dichlorophenyl 4'-[(dimethylamino)methyl]-4-biphenyl ketone hydrochloride]
- IC50 [1, 2]: 200 nM

SMILES: C=CCN(C)Cc1ccc(-c2ccc(C(=O)c3ccccc3C)cc2)cc1 [Compound 34]
- IC50 [1, 2]: 50.6 nM

SMILES: CCN(C)Cc1ccc(-c2ccc(C(=O)c3ccccc3)cc2)cc1 [Compound 25, 4'-[Ethylmethylamino)methyl]-4-biphenylyl phenyl ketone hydrochloride]
- IC50 [1, 2]: 137 nM

SMILES: C=CCN(C)Cc1ccc(-c2ccc(C(=O)c3ccc(F)cc3F)cc2)cc1 [Compound 31, 2,4-difluorophenyl 4'-[(allylmethylamino)methyl]-4-biphenylyl ketone]
- IC50 [1]: 21.2 nM

SMILES: C=CCN(C)Cc1ccc(-c2ccc(C(=O)c3ccc(Cl)cc3Cl)cc2Cl)cc1 [Compound 21]
- IC50 [1, 2]: 58.5 nM

SMILES: CN(C)Cc1ccc(-c2ccc(C(=O)c3ccc(F)cc3F)cc2)cc1 [Compound 30]
- IC50 [1, 2]: 82.5 nM
